Test results: ChEMBL document CHEMBL1201862, “PubChem BioAssay data set” (2004)
One block for each molecule: values may come before it. Calls of active or inactive are those of the source.

What was measured:
Cytochrome P450 2D6 = Cytochrome P450 2D6 (Homo sapiens, UniProt P10635);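 also: CYP2D6 member of a cytochrome P450 panel assay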
[1] = molecular target: Melanin-concentrating hormone receptor 1 (Homo sapiens, UniProt Q99705); experiment: Fluorescence-based counterscreen for antagonists of the G-protein coupled receptor 7 (GPR7): cell-based high throughput dose response assay to identify antagonists of the melanin-concentrating hormone receptor 1 (MCHR1).; type: functional
Chain of Melanin-concentrating hormone receptor 1 (Q99705 whole entry): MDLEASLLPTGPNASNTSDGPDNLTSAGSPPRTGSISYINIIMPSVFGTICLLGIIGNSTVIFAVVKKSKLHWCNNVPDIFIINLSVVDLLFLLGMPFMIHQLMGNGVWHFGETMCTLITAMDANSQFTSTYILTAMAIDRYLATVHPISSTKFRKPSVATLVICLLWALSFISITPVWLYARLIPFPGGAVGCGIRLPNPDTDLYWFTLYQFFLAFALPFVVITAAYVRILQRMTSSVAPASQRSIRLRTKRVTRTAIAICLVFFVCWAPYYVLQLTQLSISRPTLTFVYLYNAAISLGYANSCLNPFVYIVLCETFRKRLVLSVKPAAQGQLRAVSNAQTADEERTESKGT

[2] = molecular target: T1, Eukaryotic translation initiation factor 2-alpha kinase 3 (Homo sapiens, UniProt Q9NZJ5); experiment: Dose response cell-based high-throughput screening assay to measure PERK inhibition. [Related pubchem assays: 1416 ]; type: functional
T1 sequence (Q9NZJ5 whole entry): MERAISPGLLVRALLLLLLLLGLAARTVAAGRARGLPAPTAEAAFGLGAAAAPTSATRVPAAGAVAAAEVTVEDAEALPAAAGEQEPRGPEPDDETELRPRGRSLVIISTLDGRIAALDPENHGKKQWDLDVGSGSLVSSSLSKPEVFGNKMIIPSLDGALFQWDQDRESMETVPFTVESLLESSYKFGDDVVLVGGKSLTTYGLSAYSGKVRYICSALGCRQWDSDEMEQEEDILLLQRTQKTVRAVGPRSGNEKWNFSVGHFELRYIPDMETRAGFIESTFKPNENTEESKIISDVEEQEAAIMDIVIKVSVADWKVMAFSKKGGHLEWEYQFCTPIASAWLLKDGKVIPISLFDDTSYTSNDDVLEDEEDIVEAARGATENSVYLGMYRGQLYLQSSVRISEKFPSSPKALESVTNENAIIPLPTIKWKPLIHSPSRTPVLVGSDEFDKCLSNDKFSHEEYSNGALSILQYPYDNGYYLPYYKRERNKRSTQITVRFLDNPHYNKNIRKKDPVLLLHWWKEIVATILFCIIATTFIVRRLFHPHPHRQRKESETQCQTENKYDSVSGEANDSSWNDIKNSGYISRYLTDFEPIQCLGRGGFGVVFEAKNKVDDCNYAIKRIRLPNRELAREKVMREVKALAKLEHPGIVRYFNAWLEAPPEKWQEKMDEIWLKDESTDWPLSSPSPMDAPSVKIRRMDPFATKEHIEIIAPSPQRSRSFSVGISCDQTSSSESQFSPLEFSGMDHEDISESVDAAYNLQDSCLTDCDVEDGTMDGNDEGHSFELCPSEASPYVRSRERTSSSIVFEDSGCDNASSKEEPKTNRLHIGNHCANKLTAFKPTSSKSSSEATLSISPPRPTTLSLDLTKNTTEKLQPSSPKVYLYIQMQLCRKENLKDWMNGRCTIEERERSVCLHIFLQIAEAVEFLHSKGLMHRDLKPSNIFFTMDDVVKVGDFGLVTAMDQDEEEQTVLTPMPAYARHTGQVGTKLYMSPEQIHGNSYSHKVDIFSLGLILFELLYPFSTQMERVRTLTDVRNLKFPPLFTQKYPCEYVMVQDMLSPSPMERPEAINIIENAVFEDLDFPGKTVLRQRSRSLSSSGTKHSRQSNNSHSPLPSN

[3] = molecular target: T1, Eukaryotic translation initiation factor 2-alpha kinase 3; experiment: Counterscreen assay for PERK inhibitors: Dose response cell-based high throughput screening assay to measure inhibition of PERK at 6 hours. [Related pubchem assays: 1522, 1416 ]; type: functional
[4] = molecular target: T2, Neuropeptide Y receptor type 1 (Homo sapiens, UniProt P25929); experiment: Fluorescence-based counterscreen for agonists of NPY-Y2: cell-based high-throughput dose response assay for agonists of NPY-Y1.; type: functional
T2 sequence (P25929 whole entry): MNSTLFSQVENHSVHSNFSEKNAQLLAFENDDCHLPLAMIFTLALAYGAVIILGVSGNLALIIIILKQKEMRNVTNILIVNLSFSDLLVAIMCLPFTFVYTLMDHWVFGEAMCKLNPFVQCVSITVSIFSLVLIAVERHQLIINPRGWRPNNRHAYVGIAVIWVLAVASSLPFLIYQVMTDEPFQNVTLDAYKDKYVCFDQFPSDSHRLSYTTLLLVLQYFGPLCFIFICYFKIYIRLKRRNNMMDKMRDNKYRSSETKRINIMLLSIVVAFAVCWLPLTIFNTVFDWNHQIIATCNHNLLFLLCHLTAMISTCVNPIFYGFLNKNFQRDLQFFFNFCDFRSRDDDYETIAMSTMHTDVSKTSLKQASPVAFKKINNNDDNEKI

HEK293 = experiment: Fluorescence-based counterscreen for potentiators or agonists of NPY-Y2: cell-based high-throughput dose response assay to identify inhibitors of cyclic nucleotide gated ion channel (CNGC) activity. In this assay, the parental HEK293 cell line transfected with a cyclic-nucleotide gated ion channel (CNGC)-based cAMP sensor is used to measure inhibition of isoproterenol-induced CNGC activity by test compound.; type: functional; conditions: Homo sapiens;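 also: stimulus is 1 µM isoproterenol at EC100 plus PDE inhibitor Ro 20-1724 at 25 µM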
[5] = molecular target: T3, Neuropeptide Y receptor type 2 (Homo sapiens, UniProt P49146); experiment: Fluorescence-based cell-based high-throughput dose response assay for agonists of NPY-Y2. [Related pubchem assays: 1703 (Screening assay (CNGC inhibitors).), 1359 (Screening assay (NPY-Y2 potentiators or agonists).), 1304 (Screening assay (NPY-Y1 potentiators or agonists).), 1710 (Screening assay (NPY-Y2 agonists).), 1791 (Summary AID.)]; type: functional
T3 sequence (P49146 whole entry): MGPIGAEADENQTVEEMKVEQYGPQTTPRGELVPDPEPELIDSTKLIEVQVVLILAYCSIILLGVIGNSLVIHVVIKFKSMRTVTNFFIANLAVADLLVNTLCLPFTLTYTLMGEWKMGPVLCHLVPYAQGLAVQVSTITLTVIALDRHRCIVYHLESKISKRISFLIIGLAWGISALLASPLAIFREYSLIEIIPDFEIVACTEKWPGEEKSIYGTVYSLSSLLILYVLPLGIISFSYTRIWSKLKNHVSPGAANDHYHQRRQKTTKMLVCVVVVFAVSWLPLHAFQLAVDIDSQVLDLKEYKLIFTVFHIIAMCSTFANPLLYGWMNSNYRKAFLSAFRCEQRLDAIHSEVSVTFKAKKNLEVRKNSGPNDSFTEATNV

[6] = molecular target: Mothers against decapentaplegic homolog 3 (Homo sapiens, UniProt P84022); experiment: blockers of Smad3 complex formation in lysate – cell lysate, secondary confirmation, chemiluminescent ELISA, HEK293 lysate, dose response (AID 1058); type: functional
Chain of Mothers against decapentaplegic homolog 3 (P84022 whole entry): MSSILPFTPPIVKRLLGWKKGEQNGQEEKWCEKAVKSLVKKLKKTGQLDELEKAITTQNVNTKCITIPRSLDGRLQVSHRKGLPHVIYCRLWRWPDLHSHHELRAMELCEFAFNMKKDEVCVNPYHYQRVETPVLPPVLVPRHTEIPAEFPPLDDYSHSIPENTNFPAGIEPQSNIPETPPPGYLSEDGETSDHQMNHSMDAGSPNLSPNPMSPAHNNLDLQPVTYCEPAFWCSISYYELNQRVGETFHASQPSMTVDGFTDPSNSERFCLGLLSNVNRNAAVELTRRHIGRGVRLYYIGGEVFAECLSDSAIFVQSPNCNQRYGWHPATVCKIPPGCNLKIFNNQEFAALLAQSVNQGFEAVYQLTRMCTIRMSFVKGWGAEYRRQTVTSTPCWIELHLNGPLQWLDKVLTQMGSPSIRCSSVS

[7] = molecular target: Lysosomal acid glucosylceramidase (Homo sapiens, UniProt P04062); experiment: Dose response cell-based high throughput screening assay to identify enhancers of beta-glucosidase activity. [Related pubchem assays: 784 ]; type: functional
Chain of Lysosomal acid glucosylceramidase (P04062 whole entry): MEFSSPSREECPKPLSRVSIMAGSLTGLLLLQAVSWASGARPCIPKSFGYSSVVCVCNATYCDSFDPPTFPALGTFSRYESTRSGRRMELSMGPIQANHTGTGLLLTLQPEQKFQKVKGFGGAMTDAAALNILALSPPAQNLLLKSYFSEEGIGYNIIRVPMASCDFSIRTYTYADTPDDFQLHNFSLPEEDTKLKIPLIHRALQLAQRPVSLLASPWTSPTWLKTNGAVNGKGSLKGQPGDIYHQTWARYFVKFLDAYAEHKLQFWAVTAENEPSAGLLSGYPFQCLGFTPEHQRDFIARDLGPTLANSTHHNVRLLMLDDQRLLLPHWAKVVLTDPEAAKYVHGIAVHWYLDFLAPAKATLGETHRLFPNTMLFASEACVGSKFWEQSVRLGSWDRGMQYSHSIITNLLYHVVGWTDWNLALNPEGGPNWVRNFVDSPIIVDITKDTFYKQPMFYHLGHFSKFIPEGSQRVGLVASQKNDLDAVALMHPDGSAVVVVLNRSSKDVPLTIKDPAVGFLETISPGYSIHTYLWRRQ

Chain of Cytochrome P450 2D6 (P10635 whole entry): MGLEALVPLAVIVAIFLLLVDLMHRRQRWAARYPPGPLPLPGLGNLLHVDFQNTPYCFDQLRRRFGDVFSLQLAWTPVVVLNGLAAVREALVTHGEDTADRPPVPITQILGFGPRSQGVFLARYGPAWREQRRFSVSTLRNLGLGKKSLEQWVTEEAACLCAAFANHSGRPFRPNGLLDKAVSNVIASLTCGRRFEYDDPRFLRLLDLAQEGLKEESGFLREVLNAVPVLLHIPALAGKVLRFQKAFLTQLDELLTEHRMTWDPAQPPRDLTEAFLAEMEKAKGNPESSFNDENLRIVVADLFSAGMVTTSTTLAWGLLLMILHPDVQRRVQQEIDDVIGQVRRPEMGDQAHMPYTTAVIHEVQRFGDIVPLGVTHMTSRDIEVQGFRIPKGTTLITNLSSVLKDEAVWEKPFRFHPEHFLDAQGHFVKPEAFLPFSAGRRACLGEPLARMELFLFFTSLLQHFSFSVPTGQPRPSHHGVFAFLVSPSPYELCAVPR

AC50 (Cytochrome P450 2D6): 20 µM (inconclusive)
IC50 [1]: 11.1 µM (not active)
Compound: COC(=O)[C@@]1(Cc2ccc(F)cc2)[C@H]2c3cc(C(=O)N(C)C)n(Cc4ccccc4)c3C[C@H]2CN1C(=O)c1ccccc1

EC50 [2]: > 55.7 µM (not active)
EC50 [3]: > 55.7 µM (not active)
Compound: CCN1CC(=O)Nc2cc(S(=O)(=O)N3CCOCC3)ccc21

Compound: CC1=NC(=O)C(N=Nc2ccccc2C(=O)O)N1c1ccccc1 (centres undefined)
EC50 [4]: 9.92 µM (active)
EC50 (HEK293): > 3.94 µM (active)
EC50 [5]: 16.9 µM (not active)

IC50 [6]: > 40 µM (not active)
Compound: COc1cccc(C(c2cc3c(cc2O)OCO3)N2CCOCC2)c1O (centres undefined)

EC50 [7]: > 10 µM (not active)
Compound: CC(C)CCn1nnnc1C(c1ccccc1)N1CCC(C(N)=O)CC1 (centres undefined)
